How the values were obtained:
Gaa KO mice = test: Muscle biomarkers LAMP1, LC3, dysferlin in Gaa KO mice (staining, western blot); type: in vivo, mouse; conditions: mouse, in vivo
Procedure: The therapeutic effects of ATB200 and miglustat were evaluated and compared against those of Alglucosidase alfa in Gaa KO mice. For the study, male Gaa KO (3-to 4-month old) and age-matched wild-type (WT) mice were used. Alglucosidase alfa was administered via bolus tail vein intravenous (IV) injection. In the co-administration regimen, miglustat was administered via oral gavage (PO) 30 minutes prior to the IV injection of ATB200. Treatment was given biweekly. Treated mice were sacrificed after 14 days from the last administration and various tissues were collected for further analysis. Table 11 summarizes the study design:
Tissue samples were also analyzed for biomarker changes following the methods discussed in: Khanna R, et al. (2012), “The pharmacological chaperone AT2220 increases recombinant human acid α-glucosidase uptake and glycogen reduction in a mouse model of Pompe disease,” Plos One 7(7): e40776; and Khanna, R et al. (2014), “The Pharmacological Chaperone AT2220 Increases the Specific Activity and Lysosomal Delivery of Mutant Acid a-Glucosidase, and Promotes Glycogen Reduction in a Transgenic Mouse Model of Pompe Disease,” PLOS ONE 9(7): e102092.
Similarly, intense LC3-positive aggregates in the muscle fibers of untreated Gaa KO mice signify the presence of autophagic zones and autophagy build-up. […] A similar observation was made when the expression of LC3 was assessed using western blot. […] In comparison, the effect of alglucosidase alfa on autophagy was modest.
Dysferlin, a protein involved in membrane repair and whose deficiency/mistrafficking is associated with a number of muscular dystrophies, was also assessed.

[1] = tested on: adult subjects with late-onset Pompe disease (LOPD); test: Study ATB200-03 (PROPEL): PROMIS-Physical Function; type: in vivo, human; conditions: for CHG to Week 52 in PROMIS-Physical Function total score, LS Mean: MMRM, actual time point of assessments; for PROMIS-Physical Function Short Form 20a total score CHG, LS means (SE): Week 52, ANCOVA
Procedure: The test for the primary endpoint was conducted first at the 1-sided 0.025 significance level, and if significant, the ordered key secondary endpoints were similarly tested at the same significance level. The statistical significance of the key secondary endpoints was interpreted following a hierarchical testing order, each at the 1-sided alpha level of 0.025. […] Primary analyses of efficacy were performed using the mixed-effect model for repeated measures (MMRM) for 6MWD in Intent-to-treat Observed Population (ITT) that includes all available, observed data without any missing data imputation (ITT-OBS) and analysis of covariance (ANCOVA) for all other endpoints in the Intent-to-Treat-Last Observation Carried Forward (ITT-LOCF) Population. A nonparametric randomization based ANCOVA was specified as the first sensitivity analysis for 6MWD and FVC. […] For the purposes of data presentation in this document, 2-sided p-values are reported hereafter, except as otherwise noted.

[2] = tested on: adult subjects with late-onset Pompe disease (LOPD); test: Study ATB200-03 (PROPEL): urinary hexose tetrasaccharide (Hex4/Glc4); type: in vivo, human
[3] = tested on: adult subjects with late-onset Pompe disease (LOPD); test: Study ATB200-03: global test and responder analyses on 6MWD, FVC, MMT; type: in vivo, human; conditions: change from baseline to Week 52
Description: To support the interpretation of clinical benefit, a composite subject-level response was defined based on the totality of the treatment outcome data. Subjects were classified by an ordinal response variable consisting of significant improvement, moderate improvement, or minor/no improvement based on treatment outcomes.
Thresholds for clinically relevant changes for 6MWD and FVC in Pompe specifically are not well established, however a large body of data exists from other neuromuscular and chronic respiratory diseases, especially interstitial pulmonary fibrosis (IPF). […] Accordingly, these thresholds were applied to analyses of Study ATB200-03 data.
Additional post hoc patient-level analyses were conducted using these thresholds for 6MWD (±6%) and FVC (±3%) separately and combined.

adult subjects with LOPD [4] = test: Study ATB200-07 (OLE): sitting % predicted FVC; type: in vivo, human
Description: The study doses and schedule are maintained from Study ATB200-03.
Efficacy data are presented in this summary as change from the baseline of Study ATB200-03 (OLE-ES Population).

adult subjects with LOPD [5] = test: Study ATB200-07 (OLE): CK
Procedure: The Phase III double-blind PROPEL study (NCT03729362; ATB200-03) described in Examples 9 and 10 above compared the investigational two-component therapy cipaglucosidase alfa/miglustat (cipa/mig) with alglucosidase alfa/placebo (alglu) in adults with late-onset Pompe disease (LOPD) over 52 weeks. The ongoing open-label extension (OLE) of PROPEL (NCT04138277; ATB200-07) evaluates long-term safety and efficacy of cipa/mig. Outcomes include 6 minute walk distance (6MWD), forced vital capacity (FVC), creatine kinase (CK) and hexose tetrasaccharide (Hex4) levels and safety. Data are reported as change from the PROPEL baseline to OLE week 52 (104 weeks after the PROPEL baseline).

[6] = tested on: adult subjects with Pompe disease; test: Pooled Studies ATB200-02/03/07 (Pool 2): 6MWD by exposure interval; conditions: exposure interval ≤15 months
Procedure: (§1) The pooled efficacy analyses presented within this section include the outlier (Pool 2). […] Pooled efficacy analyses excluding the outlier subject (Pool 2A) were also performed.
(§2) No long-term data for the alglucosidase alfa/placebo group are available, as all subjects switched to cipaglucosidase alfa/miglustat in Study ATB200-07.
(§3) Efficacy data from the 3 adult Pompe disease clinical studies were pooled and analyzed to further support the long-term efficacy of cipaglucosidase alfa/miglustat in adult subjects. Data from non-ambulatory subjects (Study ATB200-02 Cohort 2) were not included in the pool as there was little overlap of efficacy endpoints for this group with the various ambulatory groups, such as 6MWD and lower MMT.
(§4) The 3 adult Pompe disease clinical studies were pooled as follows: • The cipaglucosidase alfa/miglustat treatment group consists of: • All ambulatory subjects in Study ATB200-02 (Cohorts 1, 3, and 4), • All subjects randomized to the cipaglucosidase alfa/miglustat treatment group in Study ATB200-03, and • All subjects enrolled in Study ATB200-07. • The alglucosidase alfa/placebo treatment group consists of: • All subjects randomized to the ERT treatment group in Study ATB200-03.

[7] = tested on: adult subjects with Pompe disease; test: Pooled Studies ATB200-02/03/07 (Pool 2): sitting % predicted FVC by exposure interval; conditions: exposure interval ≤15 months
Procedure: as §1, §2, §3, §4

[8] = Week 52-LOCF, ERT-experienced Population
[9] = Week 52-LOCF, ERT-naïve Subjects excluding Subject 4005-2511
[10] = Week 52-LOCF, ITT excluding Subject 4005-2511
[11] = Excluding Subject 4005-2511, 2-sided p 0.010
[12] = ITT Population, 2-sided p 0.022
[13] = ERT-naïve, Study ATB200-03/07, excluding the outlier
[14] = Study ATB200-03 baseline, OLE-ES Population excluding Subject 4005-2511
[15] = change from ATB200-03 baseline at Week 52, OLE-ES excluding Subject 4005-2511
[16] = change from ATB200-03 baseline at Week 104, alglucosidase alfa/placebo group switched to cipaglucosidase alfa/miglustat at Week 52, OLE-ES excluding Subject 4005-2511
[17] = Pool 2, Efficacy Population including the outlier
[18] = last available post-baseline value − baseline, Pool 2, including the outlier

## alglucosidase alfa [reference compound]
Gaa KO mice
  LC3 II level / autophagy, western blot: modest
[1]; Baseline, ITT, ERT-naïve Subjects excluding Subject 4005-2511
  PROMIS-Physical Function Short Form 20a total score Absolute Value, Median: 67.00
[1]; Baseline, ITT, ERT-naïve Subjects excluding Subject 4005-2511, score 20 to 100, higher = less impact
  PROMIS-Physical Function Short Form 20a total score Absolute Value, Mean: 72.71
[1]; ERT-experienced Population
  mean (SD) change in PROMIS-Physical Function total score from baseline to Week 52: 1.0 (11.20)
[1]; ERT-naïve excluding Subject 4005-2511
  mean (SD) change in PROMIS-Physical Function total score from baseline to Week 52: 5.1 (7.82)
[1]; ITT-LOCF, ERT-naïve Subjects excluding Subject 4005-2511
  Change in PROMIS-Physical Function total score baseline to Week 52, LS means (SE) from ANCOVA: 6.96 (3.539)
[1]; ITT-OBS excluding Subject 4005-2511 (overall)
  CHG to Week 52 in PROMIS-Physical Function total score, LS Mean: −0.3
[1]; ITT-OBS excluding Subject 4005-2511, ERT-naïve Subjects
  CHG to Week 52 in PROMIS-Physical Function total score, LS Mean: 5.8
[1]; ITT-OBS, ERT-experienced Subjects
  CHG to Week 52 in PROMIS-Physical Function total score, LS Mean: −1.6
[1]; [8]
  PROMIS-Physical Function Short Form 20a total score Absolute Value, Mean (SD): 65.90 (15.790)
  PROMIS-Physical Function Short Form 20a total score Absolute Value, Median: 66.00
  PROMIS-Physical Function Short Form 20a total score CHG, Mean (SD): −0.97 (11.196)
  PROMIS-Physical Function Short Form 20a total score CHG, Median: −2.00
[1]; [9]
  PROMIS-Physical Function Short Form 20a total score Absolute Value, Mean: 77.86
  PROMIS-Physical Function Short Form 20a total score Absolute Value, Median: 80.00
  PROMIS-Physical Function Short Form 20a total score CHG (change from baseline), Mean: 5.14
  PROMIS-Physical Function Short Form 20a total score CHG (change from baseline), Median: 5.00
[1]; [10]
  PROMIS-Physical Function Short Form 20a total score Absolute Value, Mean (SD): 68.16 (16.269)
  PROMIS-Physical Function Short Form 20a total score Absolute Value, Median: 69.00
  PROMIS-Physical Function Short Form 20a total score CHG, Mean (SD): 0.19 (10.819)
  PROMIS-Physical Function Short Form 20a total score CHG, Median: −1.00
[1]; ITT-LOCF excluding Subject 4005-2511
  PROMIS-Physical Function Short Form 20a total score CHG, LS means (SE): 0.11 (1.406)
[1]; ITT-LOCF, ERT-experienced Population
  PROMIS-Physical Function Short Form 20a total score CHG, LS means (SE): −1.25 (1.587)
[1]; overall population
  mean (SD) change in PROMIS-Physical Function total score from baseline to Week 52: 0.2 (10.82)
[2]; ERT-experienced patients (baseline 4.6 and 7.2 mmol/mol)
  mean urinary Glc4 concentration at Week 52: 9.1 mmol/mol
[2]; combined ERT switch and ERT naïve population
  mean change in urine Hex-4 after 52 weeks: +11.0%
[3]; [11]
  Wilcoxon rank sum test on sum of ranks for 6MWD and % predicted FVC: Mean Score: 48.5
  Wilcoxon rank sum test on sum of ranks for 6MWD and % predicted FVC: Sum of Scores: 1793.5
[3]; [12]
  Wilcoxon rank sum test on sum of ranks for 6MWD and FVC: Mean Score: 50.4
  Wilcoxon rank sum test on sum of ranks for 6MWD and FVC: Sum of Scores: 1915.5
Adult subjects with LOPD [4]; [13]
  % Predicted FVC Baseline Mean: 79.1 % predicted
  % Predicted FVC CFBL M12 (W 52) Mean: −4.0 % predicted
  % Predicted FVC CFBL M24 (W 104) Mean: −3.1 % predicted
Adult subjects with LOPD [4]; [14]
  Sitting FVC, mean BSL: 69.5 % predicted
Adult subjects with LOPD [4]; [15]
  Sitting FVC, mean 52-wk CFB: −3.6 % predicted
Adult subjects with LOPD [4]; [16]
  Sitting FVC, mean 104-wk CFB: −3.6 % predicted
Adult subjects with LOPD [5]; [14]
  CK, mean BSL: 527.4
Adult subjects with LOPD [5]; [15]
  CK, mean 52-wk CFB: 41.0
Adult subjects with LOPD [5]; [16]
  CK, mean 104-wk CFB: −173.6
[6]; [17]
  6MWD Baseline, Mean: 350.14 meters
[6]; Pool 2, including the outlier
  6MWD Baseline, Median: 358.45 meters
  6MWD change from baseline, median: 3.15 meters
[6]; [18]
  6MWD change from baseline, mean: 16.40 meters
[7]; [17]
  Sitting % Predicted FVC Baseline, Mean: 70.04 % predicted
[7]; Pool 2, including the outlier
  Sitting % Predicted FVC Baseline, Median: 71.25 % predicted
  sitting % predicted FVC change from baseline, median: −3.00 % predicted
[7]; [18]
  sitting % predicted FVC change from baseline, mean: −3.64 % predicted
